Data on 12 compounds can be found in ChEMBL document CHEMBL5036313, “Discovery of Novel, Potent Inhibitors of Hydroxy Acid Oxidase 1 (HAO1) Using DNA-Encoded Chemical Library Screening” (J Med Chem, 2021).

A short description of series [1]: Kinetic solubility of the compound at pH 7.4. It counts as physicochemical. The conditions noted are these: buffer, read-out: Kinetic_solubility.
The nature of series [2]: Metabolic stability in mouse liver microsomes assessed as intrinsic clearance. Type of series: ADME, Microsome. The conditions noted are these: read-out: CLH. A general note: Liver microsomes are a subcellular fraction often used to study metabolism.
A short description of series [3]: Metabolic stability in human liver microsomes assessed as intrinsic clearance. Type of series: ADME, Microsome. To be noted: read-out: CLH.
Series [4] in a line: Kinetic solubility of the compound at pH 2. It counts as physicochemical. The conditions noted are these: buffer, read-out: Kinetic_solubility.
A short description of series [5]: Unbound intrinsic clearance in CD1 mouse plasma at 0.3 mg/kg, iv measured upto 8 hrs. It counts as ADME, organism-based. To be noted: in vivo.
The nature of series [6]: Half life in CD1 mouse plasma at 0.3 mg/kg, iv measured upto 8 hrs. It counts as ADME, organism-based.
Series [7] is described as follows: Oral bioavailability in CD1 mouse at 10 mg/kg measured upto 24 hrs. It counts as ADME, organism-based. The conditions noted are these: in vivo.
Series [8] is described as follows: AUCinfinity in CD1 mouse at 10 mg/kg, po measured upto 24 hrs. It counts as ADME, organism-based. To be noted: in vivo. Further details: route oral, dose 10 mg/kg, time <=24.

In brackets after ≈: the same amount, converted by molar mass.

On to `CN(C)c1noc(-c2cccc(CNc3cnc4nn[nH]c4c3)c2O)n1`, for which the results for the solubility kinetic in series [1] and in series [4] were 0.59 µM (≈ 0.208 µg/mL) and 0.53 µM (≈ 0.187 µg/mL), respectively. Besides, the CLint scaled turned out to be 72.6 L/h/kg in series [2] and 3.33 L/h/kg in series [3].
Consider `CN(C)c1noc(-c2cccc(CN(C)c3ccc4[nH]nc(C(=O)O)c4c3)c2O)n1`, for which, in series [5], the CL free came to 146.6 L/h/kg. In series [6], this compound gave a half-life of 3.3 h. Moreover, the bioavailability in series [7] amounted to 4%. For the same compound, the solubility kinetic in series [1] stood at 135 µM (≈ 55.1 µg/mL); in series [4], 16 µM (≈ 6.53 µg/mL). The CLint scaled in series [2] turned out to be 2.76 L/h/kg; in series [3], 0.84 L/h/kg. In series [8], this compound showed an AUC(0-inf) of 6.8 µM·h.
Take `CN(C)c1noc(-c2cccc(CNc3ccc4[nH]nc(C(=O)O)c4c3)c2)n1`: the solubility kinetic in series [1] is 255 µM (≈ 96.5 µg/mL); in series [4], 308 µM (≈ 117 µg/mL). Also, the CLint scaled stood at 0.174 L/h/kg in series [2] and 0.03 L/h/kg in series [3].
For the compound `Cc1csc(-c2cccc(CNc3ccc4[nH]nc(C(=O)O)c4c3)c2O)n1`, the solubility kinetic in series [1] is 44 µM (≈ 16.7 µg/mL); in series [4], 5 µM (≈ 1.9 µg/mL). Also, the CLint scaled in series [2] was 2.04 L/h/kg.
In series [5], `CN(C)c1noc(-c2cccc(CNc3ccc4[nH]nc(C(=O)O)c4c3)c2O)n1` showed a CL free of 26.8 L/h/kg. Further, the half-life in series [6] is 1.8 h. In series [7], this compound displayed a bioavailability of 6%. Moreover, the results for the solubility kinetic in series [1] and in series [4] were 157 µM (≈ 61.9 µg/mL) and 0.4 µM (≈ 0.158 µg/mL), respectively. Also, the CLint scaled in series [2] is 1.72 L/h/kg; in series [3], 0.414 L/h/kg. Also, in series [8], the area under the curve AUC(0-inf) is 11.2 µM·h.
`Cc1nc(-c2cccc(CNc3ccc4[nH]nc(C(=O)O)c4c3)c2O)sc1C` had a CL free in series [5] of 270 L/h/kg. In addition, the half-life in series [6] is 3.3 h. This compound displayed a bioavailability in series [7] of 19%. The solubility kinetic in series [1] came out at 15 µM (≈ 5.92 µg/mL); in series [4], 20 µM (≈ 7.89 µg/mL). The CLint scaled was determined as 0.9 L/h/kg in series [2] and 1.26 L/h/kg in series [3]. The AUC(0-inf) in series [8] came out at 46.1 µM·h.
In the case of `CC(C)c1csc(-c2cccc(CNc3ccc4[nH]nc(C(=O)O)c4c3)c2O)n1`, the figures for the solubility kinetic in series [1] and in series [4] were 102 µM (≈ 41.7 µg/mL) and 97 µM (≈ 39.6 µg/mL), respectively. The CLint scaled stood at 0.48 L/h/kg in series [2] and 0.6 L/h/kg in series [3].
As for `CC(C)c1noc(-c2cccc(CNc3ccc4[nH]nc(C(=O)O)c4c3)c2O)n1`, in series [5], the CL free turned out to be 326.2 L/h/kg. For the same compound, the half-life in series [6] is 0.4 h. The compound further gave a bioavailability in series [7] of 2%. Moreover, the results for the solubility kinetic in series [1] and in series [4] were 227 µM (≈ 89.3 µg/mL) and 11 µM (≈ 4.33 µg/mL), respectively. For the same compound, the figures for the CLint scaled in series [2] and in series [3] were 2.29 L/h/kg and 0.144 L/h/kg, respectively. Further, in series [8], the AUC(0-inf) was determined as 0.46 µM·h.
In the case of `CC(C)c1coc(-c2cccc(CNc3ccc4[nH]nc(C(=O)O)c4c3)c2O)n1`, the solubility kinetic in series [1] stood at 229 µM (≈ 89.9 µg/mL); in series [4], 4 µM (≈ 1.57 µg/mL). Also, the CLint scaled in series [2] amounted to 5.04 L/h/kg.
Taken in the same sequence, the figures for `Cc1nc(-c2cccc(CN(C)c3ccc4[nH]nc(C(=O)O)c4c3)c2)sc1C` were 254 µM (≈ 99.7 µg/mL), 276 µM (≈ 108 µg/mL) and 2.7 L/h/kg.
Consider `CN(C)c1noc(-c2cccc(CNc3ccc4[nH]nc(C(=O)O)c4c3)c2Cl)n1`, for which the figures for the solubility kinetic in series [1] and in series [4] were 296 µM (≈ 122 µg/mL) and 7 µM (≈ 2.89 µg/mL), respectively. Also, the CLint scaled in series [2] is 0.72 L/h/kg; in series [3], 0.348 L/h/kg.
Regarding `CC(C)c1csc(-c2cccc(CN(C)c3ccc4[nH]nc(C(=O)O)c4c3)c2O)n1`, the figures for the solubility kinetic in series [1] and in series [4] were 6 µM (≈ 2.54 µg/mL) and 175 µM (≈ 73.9 µg/mL), respectively. Also, the CLint scaled in series [2] stood at 0.78 L/h/kg.

Broadly, the half-life is the time in which the quantity being followed falls by half. One may read the bioavailability as dose-corrected exposure relative to a reference, in per cent. A lower bioavailability goes with poor availability. One may read the AUC(0-inf) as the area under the concentration-time curve extrapolated to infinity.
